Data published in US20250145598A1, “ACID CERAMIDASE INHIBITORS AND USES THEREOF” (The Regents of the University of California, priority 2021, published 2025).

Target: T1, Acid ceramidase (Homo sapiens, UniProt Q13510)
T1 sequence (Q13510 22-395): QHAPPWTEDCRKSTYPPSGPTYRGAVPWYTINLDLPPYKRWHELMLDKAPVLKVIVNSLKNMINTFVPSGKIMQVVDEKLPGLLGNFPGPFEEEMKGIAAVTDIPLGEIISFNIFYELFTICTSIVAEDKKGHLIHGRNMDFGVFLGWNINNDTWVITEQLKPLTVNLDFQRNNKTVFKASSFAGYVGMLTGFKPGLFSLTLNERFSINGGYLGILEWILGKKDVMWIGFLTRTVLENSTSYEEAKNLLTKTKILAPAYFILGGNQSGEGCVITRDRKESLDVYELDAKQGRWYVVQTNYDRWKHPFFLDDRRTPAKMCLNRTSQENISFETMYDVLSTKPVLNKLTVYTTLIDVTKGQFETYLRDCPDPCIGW
Test: Acid ceramidase assay (AC in vitro IC50)
Assay type: biochemical
Conditions: Acid ceramidase assay data of example compounds

Compound	IC50 [nM]
CN1CCN(c2cccc(COc3ccc(-c4cn(C(=O)NCC5CCN(c6ccccc6)C5)cn4)cc3)c2)CC1=O (stereo not shown) [AC2020601-0434, 4-(4-(3-(4-methyl-3-oxopiperazin-1-yl)benzyloxy)phenyl)-N-((1-phenylpyrrolidin-3-yl)methyl)-1H-imidazole-1-carboxamide]	< 300
N#Cc1cccnc1COc1ccc(-c2cn(C(=O)NCC3CCN(c4ccccc4)C3)cn2)cc1 (stereo not shown) [AC2020601-0451, 4-(4-((3-cyanopyridin-2-yl)methoxy)phenyl)-N-((1-phenylpyrrolidin-3-yl)methyl)-1H-imidazole-1-carboxamide]	< 300
CC(C)n1ccc(COc2ccc(-c3cn(C(=O)NCC4CCN(c5ccccc5)C4)cn3)cc2)n1 (stereo not shown) [AC2020601-0448, 4-(4-((1-isopropyl-1H-pyrazol-3-yl)methoxy)phenyl)-N-((1-phenylpyrrolidin-3-yl)methyl)-1H-imidazole-1-carboxamide]	< 300
NC(=O)c1cccc(COc2ccc(-c3cn(C(=O)NCCCCc4ccccc4)cn3)cc2)c1 [AC2020601-0246, 4-(4-((3-carbamoylbenzyl)oxy)phenyl)-N-(4-phenylbutyl)-1H-imidazole-1-carboxamide]	< 300
O=C(NCCCCc1ccccc1)n1cnc(-c2ccc(OCc3cccnc3)cc2)c1 [AC2020601-0276, N-(4-phenylbutyl)-4-(4-(pyridin-3-ylmethoxy)phenyl)-1H-imidazole-1-carboxamide]	< 300
CN(CCCCc1ccccc1)C(=O)n1cnc(-c2ccc(OCc3ccccc3)cc2)c1 [AC2020601-0278, 4-(4-(benzyloxy)phenyl)-N-methyl-N-(4-phenylbutyl)-1H-imidazole-1-carboxamide]	> 3000
CN1CCN(c2cccc(COc3ccc(-c4cn(C(=O)NCC5CN(c6ccccc6)C5)cn4)cc3)c2)CC1=O [AC2020601-0449, 4-(4-(3-(4-methyl-3-oxopiperazin-1-yl)benzyloxy)phenyl)-N-((1-phenylazetidin-3-yl)methyl)-1H-imidazole-1-carboxamide]	< 300
O=C(NCC1CC1)n1cnc(-c2ccc(OCc3ccc(F)cc3)cc2)c1 [AC2020601-0206, N-(cyclopropylmethyl)-4-(4-(4-fluorobenzyloxy)Vphenyl)-1H-imid azole-1-carboxamide]	< 300
CS(=O)(=O)c1ccc(COc2ccc(-c3cn(C(=O)NCCCOc4ccc(S(F)(F)(F)(F)F)cc4)cn3)cc2)cc1 [AC2020601-0374]	< 300
N#Cc1cccc(COc2ccc(-c3cn(C(=O)NCCCCc4ccccc4)cn3)cc2)c1 [AC2020601-0275, 4-(4-((3-cyanobenzyl)oxy)phenyl)-N-(4-phenylbutyl)-1H-imidazole-1-carboxamide]	< 300
Cn1nc(C(F)(F)F)cc1COc1ccc(-c2cn(C(=O)NCC3CCN(c4ccccc4)C3)cn2)cc1 (stereo not shown) [AC2020601-0481, 4-(4-((1-methyl-3-(trifluoromethyl)-1H-pyrazol-5-yl)methoxy)phenyl)-N-((1-phenylpyrrolidin-3-yl)methyl)-1H-imidazole-1-carboxamide]	< 300
NC(=O)c1cccnc1COc1ccc(-c2cn(C(=O)NCC3CCN(c4ccccc4)C3)cn2)cc1 (stereo not shown) [AC2020601-0438, 2-((4-(1-(((1-phenylpyrrolidin-3-yl)methyl)carbamoyl)-1H-imidazol-4-yl)phenoxy)methyl)nicotinamide]	< 300
O=C(NCC1CCN(c2ccccc2)C1)n1cnc(-c2ccc(OCc3cccnn3)cc2)c1 (stereo not shown) [AC2020601-0472, N-((1-phenylpyrrolidin-3-yl)methyl)-4-(4-(pyridazin-3-ylmethoxy)phenyl)-1H-imidazole-1-carboxamide]	< 300
Cn1cnc(COc2ccc(-c3cn(C(=O)NCC4CCN(c5ccccc5)C4)cn3)cc2)n1 (stereo not shown) [AC2020601-0447, 4-(4-((1-methyl-1H-1,2,4-triazol-3-yl)methoxy)phenyl)-N-((1-phenylpyrrolidin-3-yl)methyl)-1H-imidazole-1-carboxamide]	< 300
O=C(NCCCCc1ccccc1)n1cnc(-c2ccc(OCc3cccc(N4CCOCC4)c3)cc2)c1 [AC2020601-0245, 4-(4-((3-morpholinobenzyl)oxy)phenyl)-N-(4-phenylbutyl)-1H-imidazole-1-carboxamide]	< 300
O=C(NCCCCc1ccccc1)n1cnc(-c2ccc(OCc3ccncc3)cc2)c1 [AC2020601-0323, N-(4-phenylbutyl)-4-(4-(pyridin-4-ylmethoxy)phenyl)-1H-imidazole-1-carboxamide]	< 300

The remaining lines, values ahead:

IC50 [nM]	Compound
< 300	CCS(=O)(=O)c1ccc(COc2ccc(-c3cn(C(=O)NCC4CCN(c5ccccc5)C4)cn3)cc2)c(C#N)c1 (stereo not shown) [AC2020601-0430, 4-(4-((2-cyano-4-(ethylsulfonyl)benzyl)oxy)phenyl)-N-((1-phenylpyrrolidin-3-yl)methyl)-1H-imidazole-1-carboxamide]
< 300	CS(=O)(=O)c1ccc(COc2ccc(-c3cn(C(=O)NCC4CN(c5ccccc5)C4)cn3)cc2)cc1 [AC2020601-0321, 4-(4-((4-(methylsulfonyl)benzyl)oxy)phenyl)-N-((1-phenylazetidin-3-yl)methyl)-1H-imidazole-1-carboxamide]
< 300	O=C(Nc1ccc(COc2ccc(-c3cn(C(=O)NCC4CN(c5ccccc5)C4)cn3)cc2)cc1)C1COC1 [AC2020601-0401, 4-(4-((4-(oxetane-3-carboxamido)benzyl)oxy)phenyl)-N-((1-phenylazetidin-3-yl)methyl)-1H-imidazole-1-carboxamide]
< 300	NS(=O)(=O)c1ccc(COc2ccc(-c3cn(C(=O)NCCCOc4ccccc4)cn3)cc2)cc1 [AC2020601-0324]
< 300	CS(=O)(=O)c1ccc(COc2ccc(-c3cn(C(=O)NC[C@@H]4CCN(c5ccccc5)C4)cn3)cc2)cc1 (single isomer, unassigned) [AC2020601-0384a]
< 300	CS(=O)(=O)c1ccc(COc2ccc(-c3cn(C(=O)NCC4CCN(c5cccc(C(F)(F)F)c5)C4)cn3)cc2)cc1 (stereo not shown) [AC2020601-0498, 4-(4-((4-(methylsulfonyl)benzyl)oxy)phenyl)-N-((1-(3-(trifluoromethyl)phenyl)pyrrolidin-3-yl)methyl)-1H-imidazole-1-carboxamide]
< 300	CS(=O)(=O)c1ccc(COc2ccc(-c3cn(C(=O)NCC4CCN(c5ccccc5)C4)cn3)cc2)cn1 (stereo not shown) [AC2020601-0444, 4-(4-((6-(methylsulfonyl)pyridin-3-yl)methoxy)phenyl)-N-((1-phenylpyrrolidin-3-yl)methyl)-1H-imidazole-1-carboxamide]
> 3000	CS(=O)(=O)c1ccc(COc2ccc(-c3cn(C(=O)NCC4CN(Cc5ccccc5)C4)cn3)cc2)cc1 [AC2020601-0377, N-((1-benzylazetidin-3-yl)methyl)-4-(4-((4-(methylsulfonyl)benzyl)oxy)phenyl)-1H-imidazole-1-carboxamide]
< 300	CS(=O)(=O)c1ccc(COc2ccc(-c3cn(C(=O)NCC4CCN(c5ccc6c(c5)CCO6)C4)cn3)cc2)cc1 (stereo not shown) [AC2020601-0506, N-((1-(2,3-dihydrobenzofuran-5-yl)pyrrolidin-3-yl)methyl)-4-(4-(4-(methylsulfonyl)benzyloxy)phenyl)-1H-imidazole-1-carboxamide]
< 300	CS(=O)(=O)c1ccc(COc2ccc(-c3cn(C(=O)NCC4CCN(c5cc(F)ccc5F)C4)cn3)cc2)cc1 (stereo not shown) [AC2020601-0496, N-((1-(2,5-difluorophenyl)pyrrolidin-3-yl)methyl)-4-(4-(4-(methylsulfonyl)benzyloxy)phenyl)-1H-imidazole-1-carboxamide]
< 300	CS(=O)(=O)Nc1ccc(COc2ccc(-c3cn(C(=O)NCCCCc4ccccc4)cn3)cc2)cc1 [AC2020601-0306, 4-(4-((4-(methylsulfonamido)benzyl)oxy)phenyl)-N-(4-phenylbutyl)-1H-imidazole-1-carboxamide]
< 300	CS(=O)(=O)c1ccc(COc2ccc(-c3cn(C(=O)NCCCOc4ccc(C#N)cc4)cn3)cc2)cc1 [AC2020601-0373, N-(3-(4-cyanophenoxy)propyl)-4-(4-(4-(methylsulfonyl)benzyloxy)phenyl)-1H-imidazole-1-carboxamide]
< 300	C[C@H](Oc1ccc(-c2cn(C(=O)NCCCOc3ccccc3)cn2)cc1)c1ccc(S(C)(=O)=O)cc1 (single isomer, unassigned) [AC2020601-0348]
< 300	CS(=O)(=O)Nc1ccc(COc2ccc(-c3cn(C(=O)NCCCOc4ccccc4)cn3)cc2)cc1 [AC2020601-0327, 4-(4-((4-(methylsulfonamido)benzyl)oxy)phenyl)-N-(3-phenoxypropyl)-1H-imidazole-1-carboxamide]
< 300	CS(=O)(=O)c1ccc(COc2ccc(-c3cn(C(=O)NCC4CCN(c5ccccc5)C4)cn3)cc2)nc1 (stereo not shown) [AC2020601-0445, 4-(4-((5-(methylsulfonyl)pyridin-2-yl)methoxy)phenyl)-N-((1-phenylpyrrolidin-3-yl)methyl)-1H-imidazole-1-carboxamide]
< 300	CCCCCCNC(=O)n1cnc(-c2ccc(OCc3ccc(S(C)(=O)=O)cc3)cc2)c1 [AC2020601-0296, N-hexyl-4-(4-((4-(methylsulfonyl)benzyl)oxy)phenyl)-1H-imidazole-1-carboxamide]
< 300	CS(=O)(=O)c1ccc(COc2ccc(-c3cn(C(=O)NCC4CN(c5cccc(Cl)c5)C4)cn3)cc2)cc1 [AC2020601-0407, N-((1-(3-chlorophenyl)azetidin-3-yl)methyl)-4-(4-((4-(methylsulfonyl)benzyl)oxy)phenyl)-1H-imidazole-1-carboxamide]
> 3000	CS(=O)(=O)Nc1ccc(COc2ccc(-c3cn(C(=O)NCC4CN(c5ccccc5)C4)cn3)cc2)cc1 [AC2020601-0380, 4-(4-((4-(methylsulfonamido)benzyl)oxy)phenyl)-N-((1-phenylazetidin-3-yl)methyl)-1H-imidazole-1-carboxamide]
